System: 2,985 participants free of prevalent diabetes at baseline
Test: Cardiovascular Health Study: plasma phospholipid fatty acids and incident diabetes mellitus (Cox proportional-hazards)
Format: in vivo, human
Method: Plasma phospholipid fatty acids, anthropometry, blood lipids, inflammatory markers, and glucose-insulin levels were measured at baseline using standardized methods. Independent determinants of trans-palmitoleate and relationships of trans-palmitoleate with metabolic risk factors were investigated using multivariable-adjusted linear regression.
Multivariable model adjusted for age (years), gender (male/female), race (white/nonwhite), education (<high school, high school, some college, college graduate), enrollment site (four sites), smoking (never, former, current), body mass index (kg/m^2), waist circumference (cm), coronary heart disease (yes/no), physical activity (kcal/wk), alcohol use (six categories), and consumption of carbohydrate (% energy), protein (% energy), red meat (servings/week), whole-fat dairy foods (6 categories), low-fat dairy foods (five categories), and total energy (kcal/d).
Participants were followed by means of annual examinations for 10 years with interim and subsequent 6-month telephone contacts. Ives et al., 5 Ann. Epidemiol. […] At each visit, detailed medication information was obtained using medication inventories. At baseline, study interviewers visited participants in their homes and asked to see all prescription medications they had taken in the previous 2 weeks. At follow-up exams, participants brought to clinic all prescription medications taken in the previous 2 weeks. Drug names, doses, and frequencies were coded according to prescription medication Medispan files.
Relationships between phospholipid fatty acids were evaluated using Spearman correlation. Trans-palmitoleate levels were evaluated in sex-specific quintiles as indicator variables and continuously per SD difference. Independent demographic and lifestyle determinants of trans-palmitoleate were evaluated using multivariable-adjusted linear regression with trans-palmitoleate as the dependent variable. Multivariable-adjusted relationships of trans-palmitoleate with metabolic risk factors (transformed for normality as appropriate) were evaluated using linear regression with trans-palmitoleate as the independent variable. Quintiles were evaluated as ordinal variables to assess trend, to assess effect modification using the Wald test for a multiplicative interaction term, and to assess differences in baseline characteristics by means of linear or logistic regression. […] To minimize potential confounding, covariates were selected based on biologic interest, being well-established risk factors for metabolic risk, or associations with exposures/outcomes in the present cohort. […] Analyses were performed using Stata10.1 (College Station, Tex.), two-tailed alpha=0.05.

## CCCCCC/C=C/CCCCCCCC(=O)O [trans-palmitoleate, trans-C16:1n7-palmitoleic acid]
Additional adjustment for levels of both 15:0 and 17:0
  extreme-quintile RR of new-onset diabetes: 0.39
Additional adjustment for vaccenic acid (trans-18:1n-7)
  extreme-quintile RR of incident diabetes: 0.43
men
  extreme-quintile RR of incident diabetes: 0.29
Per each higher SD of the plasma phospholipid fatty acid, multivariable-adjusted (covariates as in Table 4)
  RR of diabetes per SD: 0.72
Per each higher SD of trans-palmitoleate
  multivariable-adjusted RR of diabetes lower per each higher SD: 28%
Quintile I, 5,595 person-years of follow-up
  No. of incident cases of diabetes mellitus: 93
Quintile II vs quintile I
  Hazard ratio (RR) of incident diabetes, age- and sex-adjusted: 0.84
  Hazard ratio (RR) of incident diabetes, multivariate-adjusted: 0.79
Quintile II, 5,435 person-years of follow-up
  No. of incident cases of diabetes mellitus: 68
Quintile III vs quintile I
  Hazard ratio (RR) of incident diabetes, age- and sex-adjusted: 0.88
  Hazard ratio (RR) of incident diabetes, multivariate-adjusted: 0.89
Quintile III, 5,556 person-years of follow-up
  No. of incident cases of diabetes mellitus: 59
Quintile IV vs quintile I
  Hazard ratio (RR) of incident diabetes, age- and sex-adjusted: 0.44
  Hazard ratio (RR) of incident diabetes, multivariate-adjusted: 0.41
Quintile IV, 5,811 person-years of follow-up
  No. of incident cases of diabetes mellitus: 46
Quintile V vs quintile I
  Hazard ratio (RR) of incident diabetes, age- and sex-adjusted: 0.36
  Hazard ratio (RR) of incident diabetes, multivariate-adjusted: 0.38
Quintile V, 5,469 person-years of follow-up
  No. of incident cases of diabetes mellitus: 38
women
  extreme-quintile RR of incident diabetes: 0.41

— patent publication US9987243B2, “Use of trans-palmitoleate in identifying and treating metabolic disease” (Trustees of Tufts College, priority 2010, dated 2018)
